# Laboratory results reported in patent US11339185B2, “Cyclic dinucleotides as anticancer agents” (Bristol-Myers Squibb Company, priority 2018, dated 2022).
# Where two headings read alike, the source gives them in different places.
# What was measured:
# [1] = test system: THP1-Dual cells, IRF pathway (IRF3); experiment: STING THP1 Reporter Assay, IRF pathway (secreted Lucia luciferase, QUANTI-Luc); type: cell-based; conditions: 10% human plasma, luciferase readout, 100% activation = 100 μM cGAMP, read-out: THP1 Reporter Assays EC50 (μM) IRF3
# Text: (§1) THP1-Dual™ cells were derived from the human THP-1 monocyte cell line by stable integration of two inducible reporter constructs. To this end, THP1-Dual™ cells allow the simultaneous study of the NF-κB pathway, by monitoring the activity of SEAP, and the IRF pathway by assessing the activity of a secreted luciferase (Lucia). Both reporter proteins are readily measurable in the cell culture supernatant when using QUANTI-Blue™, a SEAP detection reagent, and QUANTI-Luc™, a luciferase detection reagent.
# (§2) THP1-Dual™ cells induce the activation of NF-κB in response to STING agonists. They also trigger the IRF pathway upon stimulation with STING agonists, such as cGAMP. Here, the THP-1-Dual cells were used to assess STING binders for function on the cellular level.
# (§3) Serial dilutions of compounds in DMSO were added to low volume 384 well plates at 100 nl/well using an ECHO acoustic dispenser (Labcyte, model 550) to achieve final starting concentration of 100 μM in cell suspension. THP-1 Dual™ STING reporter cells (Invivogen, Dual cells cat #THPD-nfis) were added to the plates with compounds at 15,000 cells in 10 μL per well in RPMI media (Gibco, cat #11875) containing 10% human plasma in a low volume 384-well black wall clear bottom tissue culture plate (Corning, cat #3542) for SEAP assay and low volume solid white plate (Corning, cat #3826) for luciferase assay. One column of the plate was reserved for treatment with cGAMP at 100 μM for 100% activation calculation and one column for no treatment (DMSO only) for baseline activation. Plates were then incubated in 37 OC incubator at 5% CO2 for 20 hours.
# (§4) In the SEAP assay, 5 μl of 2× QuantiBlue (Invivogen, cat #Rep-qb2) is added to 384 well black plates seeded with THP1 cells and incubated at 37° C. for 2 hours. Plates were read on the Envision (Perkin Elmer) at 620 nm wavelength (OD620). In the luciferase assay, 5 μl of Quantiluc (Invivogen, Rep-qlc2) is added to white 384 well plates seeded with THP1 cells and read at 5 minutes on the Envision (Perkin Elmer) using a luminescence protocol (RLU). For both cell lines, 100% activation was determined by value (RLU) of THP-1 Dual STING cells stimulated with 100 μM cGAMP (Invivogen, cat #TLRL-NACGA23-5).
# [2] = test system: THP1-Dual cells, NF-κB pathway; experiment: STING THP1 Reporter Assay, NF-κB pathway (SEAP, QUANTI-Blue); type: cell-based; conditions: 10% human plasma, SEAP readout (OD620), 100% activation = 100 μM cGAMP, read-out: THP1 Reporter Assays EC50 (μM) NFkB
# Text: as §1, §2, §3, §4
# [3] = target: T1, STING WT: His-TVMV-S-hSTING(155-341)-H232R (Homo sapiens, UniProt Q86WV6, H232R); experiment: STING HTRF binding assay (time resolved FRET competition), STING WT; conditions: 20 nM His-tagged STING WT cytoplasmic domain, 200 nM fluorescein-labeled cGAMP analog probe, one hour; read-out: HTRF Binding Assays IC50 (μM) WT
# T1 construct: STING WT: His-TVMV-S-hSTING(155-341)-H232R
# Experimental: (§5) A time resolved FRET-based competition binding assay was used to assess test article binding to STING WT and STING AQ. His-tagged STING cytoplasmic domain (WT or AQ) at a concentration of 20 nM was incubated with 2.5 nM Tb-labeled anti-His antibody, test compound, and fluorescein-labeled cGAMP analog probe (BioLog cat. no. C195) at a concentration of 200 nM (STING WT) or 40 nM (STING AQ) in PBS containing 0.005% Tween-20 and 0.1% BSA for one hour. Fluorescence at 495 nm and 520 nm was measured using an EnVision microplate reader to quantify FRET between Tb-labeled anti-His antibody and fluorescein-labeled probe. Background was defined as the signal obtained in the absence of STING protein, and background subtracted FRET ratios were normalized to the maximum signal obtained in the absence of test compound. These values were converted to a percent inhibition. Percent inhibition was determined for test compounds at 11 concentrations. The IC50, defined as the concentration of competing test compound needed to reduce specific binding of the probe by 50%, was calculated using the 4 parameter logistic equation to fit the data
# [4] = target: T2, STING AQ: His-TVMV-S-hSTING(155-341)-G230A-R293Q (Homo sapiens, UniProt Q86WV6, G230A/H232R/R293Q); experiment: STING HTRF binding assay (time resolved FRET competition), STING AQ; conditions: 20 nM His-tagged STING AQ cytoplasmic domain, 40 nM fluorescein-labeled cGAMP analog probe, one hour; read-out: HTRF Binding Assays IC50 (μM) AQ
# T2 construct: STING AQ: His-TVMV-S-hSTING(155-341)-G230A-R293Q
# Experimental: as §5
# T2 sequence (Q86WV6 with tags, fused parts or gaps G230A/H232R/R293Q): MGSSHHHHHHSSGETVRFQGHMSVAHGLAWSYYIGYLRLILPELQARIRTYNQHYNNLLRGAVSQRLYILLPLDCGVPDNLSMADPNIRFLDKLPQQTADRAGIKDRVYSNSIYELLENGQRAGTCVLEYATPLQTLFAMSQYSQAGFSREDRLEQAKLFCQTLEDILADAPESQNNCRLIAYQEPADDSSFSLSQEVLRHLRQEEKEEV
# T1 sequence (Q86WV6 with tags, fused parts or gaps H232R): as the sequence (Q86WV6 with tags, fused parts or gaps G230A/H232R/R293Q) above, with A99G, Q162R counted along it
Structure (SMILES),EC50 ([1]; 20 hours),EC50 ([2]; 20 hours),IC50 [3],IC50 [4],"EC50 ([1]; Homo sapiens, THP1-Dual, 20 h)","EC50 ([2]; Homo sapiens, THP1-Dual, 20 h)"
"Nc1ncnc2c1ncn2[C@@H]1C[C@@H]2COP(=O)(S)O[C@H]3[C@@H](O)[C@H](n4cnc5c(=O)n6cc[nH]c6nc54)O[C@@H]3COP(=O)(S)OC[C@H]21 (single isomer, unassigned) [Example 5-3]",> 100 µM,> 100 µM,> 100 µM,5.73 µM,,
"Nc1ncnc2c1ncn2[C@@H]1O[C@@H]2COP(=O)(S)OC[C@@H]3[C@@H](COP(=O)(S)O[C@H]2[C@H]1F)C[C@H]3n1cnc2c(=O)n3cnnc3[nH]c21 (single isomer, unassigned) [Example 21-2]",> 100 µM,> 100 µM,6.97 µM,0.2 µM,,
"O=P1(S)OC[C@@H]2[C@@H](COP(=O)(S)O[C@H]3[C@@H](F)[C@H](n4cnc5c4ncn4ccnc54)O[C@@H]3CO1)C[C@H]2n1cnc2c(Cl)ncnc21 (single isomer, unassigned) [Example 18-3]",> 100 µM,> 100 µM,> 100 µM,2.81 µM,,
"Nc1ncnc2c1ncn2[C@@H]1C[C@@H]2COP(=O)(S)O[C@H]3[C@@H](O)[C@H](n4cnc5c(=O)n6cc[nH]c6nc54)O[C@@H]3COP(=O)(S)OC[C@H]21 (single isomer, unassigned) [Example 5-1]",,,> 100 µM,> 100 µM,> 100 µM,> 100 µM
"NC(=O)c1cc([C@@H]2O[C@@H]3COP(=O)(S)OC[C@@H]4[C@@H](COP(=O)(S)O[C@@H]2[C@@H]3O)C[C@H]4n2cnc3c(N)ncnc32)ccn1 (single isomer, unassigned) [Example 20-3]",5.23 µM,7.64 µM,0.01 µM,0.01 µM,,
"Nc1ncnc2c1ncn2[C@@H]1C[C@@H]2COP(=O)(S)O[C@@H]3[C@H](F)[C@@H](COP(=O)(S)OC[C@H]21)O[C@H]3n1cnc2c1ncn1ccnc21 (single isomer, unassigned) [Example 8-3]",> 100 µM,> 100 µM,0.89 µM,0.3 µM,,
"Nc1ncnc2c1ncn2[C@@H]1C[C@@H]2COP(=O)(S)O[C@@H]3[C@H](F)[C@@H](COP(=O)(S)OC[C@H]21)O[C@H]3n1cnc2c1ncn1ccnc21 (single isomer, unassigned) [Example 8-2]",> 100 µM,> 100 µM,3.43 µM,0.51 µM,,
"Nc1ncnc2c1ncn2[C@@H]1C[C@@H]2COP(=O)(O)O[C@@H]3[C@H](O)[C@@H](COP(=O)(S)OC[C@H]21)O[C@H]3n1cnc2c(=O)n3ccnc3[nH]c21 (single isomer, unassigned) [Example 4-1]",,,11.1 µM,0.1 µM,> 100 µM,> 100 µM
"Nc1ncnc2c1ncn2[C@@H]1C[C@@H]2COP(=O)(S)O[C@@H]3[C@H](F)[C@@H](COP(=O)(S)OC[C@H]21)O[C@H]3n1cnc2c(=O)n3cc[nH]c3nc21 (single isomer, unassigned) [Example 6-3]",> 100 µM,> 100 µM,9.24 µM,0.22 µM,,
"Nc1ncnc2c1ncn2[C@@H]1O[C@@H]2COP(=O)(S)OC[C@@H]3[C@@H](COP(=O)(S)O[C@H]2[C@H]1F)C[C@H]3n1cnc2c(=O)[nH]cnc21 (single isomer, unassigned) [Example 22-4]",13 µM,91.7 µM,0.12 µM,0.01 µM,,
"Nc1ncnc2c1ncn2[C@@H]1O[C@@H]2COP(=O)(S)OC[C@@H]3[C@@H](COP(=O)(S)O[C@H]2[C@H]1F)C[C@H]3n1cnc2c(O)n3ccnc3nc21 (single isomer, unassigned) [Example 1-4]",0.39 µM,1.21 µM,0.01 µM,0.002 µM,,
"NC(=O)c1cc([C@@H]2O[C@@H]3COP(=O)(S)OC[C@@H]4[C@@H](COP(=O)(S)O[C@@H]2[C@@H]3O)C[C@H]4n2cnc3c(N)ncnc32)ccn1 (single isomer, unassigned) [Example 20-1]",> 100 µM,> 100 µM,> 100 µM,> 100 µM,,
